Consider 19 compounds from PubChem BioAssay (NCI).

SMILES strings stand for the structures.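 Where inhibition never reached the appropriate level, the endpoint shown equals the highest concentration tested. Otherwise, values were interpolated linearly from a five-concentration, 48-hour dose response in 96-well plates. The concentration for 50% growth inhibition is given as GI50. TGI denotes the concentration required for complete inhibition of growth.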

Test systems include HT29 colon; NCI-H226 lung; OVCAR-8 ovarian; SF-268 CNS; SF-295 CNS; SF-539 CNS; UACC-257 melanoma; HCT-116 colon; NCI-H460 lung; A498 renal.
What all share (assay): NCI-60 cell line screen, 48 h

For `COc1ccc(/C=C/CO)cc1OC`, the TGI in the experiment with HT29 colon, in the experiment on NCI-H226 lung, in the experiment on OVCAR-8 ovarian, in the experiment on SF-268 CNS, in the experiment with SF-295 CNS and in the experiment on SF-539 CNS was greater than 100 µM in each case. Also, the TGI with UACC-257 melanoma is greater than 100 µM.
Regarding `C[C@@H]1CC[C@H]2C(CN3CCN(CC4=C(C(F)(F)F)O[C@@H]5O[C@@]6(C)CC[C@H]7[C@H](C)CC[C@@H]4[C@@]57OO6)CC3)=C(C(F)(F)F)O[C@@H]3O[C@@]4(C)CC[C@@H]1[C@]32OO4`, the GI50 was 0.262 µM in the experiment on HCT-116 colon; 1.42 µM in the experiment with HT29 colon; 2.81 µM in the experiment with NCI-H226 lung; 3.14 µM in the experiment on NCI-H460 lung; 2.29 µM in the experiment with OVCAR-8 ovarian; 4.24 µM in the experiment with SF-268 CNS. The results for the GI50 in the experiment on SF-295 CNS, with SF-539 CNS and in the experiment with UACC-257 melanoma were 5.01 µM, 0.567 µM and 1.95 µM, respectively. In addition, the TGI is greater than 35.9 µM with HCT-116 colon; greater than 100 µM in the experiment on HT29 colon; greater than 100 µM with NCI-H226 lung; greater than 100 µM with NCI-H460 lung; greater than 100 µM in the experiment with OVCAR-8 ovarian; greater than 100 µM in the experiment on SF-268 CNS. In addition, the TGI is greater than 100 µM with SF-295 CNS, greater than 100 µM in the experiment with SF-539 CNS and greater than 31.5 µM in the experiment on UACC-257 melanoma.
With `CCn1c(-c2cc3ccccc3cc2OC(=O)c2ccccc2)n[nH]c1=S`, the GI50 with HCT-116 colon was 43.1 µM; in the experiment on HT29 colon, 42.4 µM; with NCI-H226 lung it was greater than 50 µM; in the experiment with SF-268 CNS, greater than 50 µM; with SF-295 CNS, 27 µM; in the experiment with SF-539 CNS it was greater than 50 µM. Moreover, in the experiment with UACC-257 melanoma, the GI50 is greater than 50 µM. Further, the TGI with HCT-116 colon, in the experiment with HT29 colon, in the experiment with NCI-H226 lung, in the experiment on SF-268 CNS, in the experiment on SF-295 CNS and with SF-539 CNS was greater than 50 µM each time. The compound further returned a TGI in the experiment on UACC-257 melanoma greater than 50 µM.
As for `CCOc1ccc(N2C(N)=NC(N)=NC2(C)C)cc1`, the GI50 is 34.6 µM with HCT-116 colon; 58.1 µM with HT29 colon; greater than 100 µM in the experiment on NCI-H226 lung; 39.8 µM with NCI-H460 lung; 62.3 µM with OVCAR-8 ovarian; 49.3 µM in the experiment with SF-268 CNS. Moreover, the GI50 in the experiment with SF-295 CNS is 48.1 µM; in the experiment on SF-539 CNS, 28.6 µM; with UACC-257 melanoma, greater than 100 µM. For the same compound, the TGI with HCT-116 colon, in the experiment on HT29 colon, in the experiment with NCI-H226 lung, in the experiment with NCI-H460 lung, in the experiment with OVCAR-8 ovarian and in the experiment with SF-268 CNS was greater than 100 µM in each case. Moreover, the TGI in the experiment with SF-295 CNS, with SF-539 CNS and in the experiment on UACC-257 melanoma was greater than 100 µM each time.
Take `Nc1nc(Cl)cc(NCCCCCCCCCCNc2cc(Cl)nc(N)n2)n1`: the TGI was greater than 100 µM with HCT-116 colon; greater than 100 µM in the experiment with HT29 colon; 20.3 µM in the experiment on NCI-H226 lung; greater than 100 µM in the experiment on NCI-H460 lung; 63 µM in the experiment with OVCAR-8 ovarian; greater than 100 µM in the experiment on SF-268 CNS. Moreover, the TGI in the experiment on SF-295 CNS was 46.4 µM; in the experiment with SF-539 CNS it was greater than 100 µM; in the experiment on UACC-257 melanoma, greater than 100 µM.
Regarding `CN(C)c1ccc(/C=N/Nc2ccc(-c3nc4ccccc4[nH]3)cc2)cc1`, the GI50 with HCT-116 colon was 15.1 µM; in the experiment with NCI-H460 lung, 9.33 µM; in the experiment on OVCAR-8 ovarian, 9.79 µM; with SF-268 CNS, 7.36 µM; in the experiment with SF-295 CNS, 3.19 µM; with UACC-257 melanoma, 9.81 µM. For the same compound, the TGI is greater than 50 µM with HCT-116 colon; 20.4 µM in the experiment with NCI-H460 lung; 32.4 µM in the experiment on OVCAR-8 ovarian; 39.8 µM in the experiment with SF-268 CNS; greater than 50 µM with SF-295 CNS; 25.8 µM with UACC-257 melanoma.
With `c1ccc(CN(Cc2ccccn2)Cn2cccn2)nc1`, the TGI in the experiment on A498 renal is greater than 100 µM; in the experiment with HCT-116 colon, 63.7 µM; in the experiment on NCI-H460 lung, greater than 100 µM; in the experiment on OVCAR-8 ovarian it was greater than 100 µM; in the experiment with SF-268 CNS, greater than 100 µM; in the experiment on SF-295 CNS, greater than 100 µM. In addition, the TGI in the experiment on SF-539 CNS and in the experiment with UACC-257 melanoma was greater than 100 µM throughout.
For the compound `Cc1ccc(NC(=O)NC23CC4CC(CC(F)(C4)C2)C3)cc1`, the TGI in the experiment on A498 renal, in the experiment on HCT-116 colon, with HT29 colon, with NCI-H460 lung, in the experiment with OVCAR-8 ovarian and in the experiment with SF-539 CNS was greater than 100 µM throughout. The compound further registered a TGI in the experiment on UACC-257 melanoma greater than 100 µM.
As for `Cc1ccc(C)c2sc3cc(=O)ccc-3nc12`, the TGI in the experiment with HCT-116 colon, in the experiment on HT29 colon, with NCI-H226 lung, in the experiment on NCI-H460 lung, in the experiment on OVCAR-8 ovarian and in the experiment with SF-268 CNS was greater than 100 µM each time. In addition, the TGI in the experiment on SF-295 CNS, in the experiment with SF-539 CNS and with UACC-257 melanoma was greater than 100 µM throughout.
With `CC1=C[C@H]2C[C@@]3(C)O[C@@H]([C@]4(C)CC[C@H]([C@@H](C)C(=O)O)OO4)CC3C(C)(C)[C@H]2CC1` (some centres undefined), the TGI turned out to be 3.78 µM in the experiment with HCT-116 colon; 1.77 µM in the experiment with HT29 colon; 3.82 µM in the experiment with NCI-H226 lung; 2.74 µM with NCI-H460 lung; 3.54 µM in the experiment on OVCAR-8 ovarian; 4.2 µM with SF-268 CNS. Moreover, the TGI came to 3.44 µM in the experiment with SF-295 CNS, 3.57 µM with SF-539 CNS and 3.17 µM in the experiment on UACC-257 melanoma.
Regarding `C(=C1/CCCCC([n+]2ccccc2)=N1)/c1ccccc1`, the TGI with HCT-116 colon, in the experiment on HT29 colon, in the experiment on NCI-H226 lung, with NCI-H460 lung, in the experiment on OVCAR-8 ovarian and in the experiment with SF-268 CNS was greater than 100 µM each time. Further, the TGI in the experiment on SF-295 CNS and in the experiment on SF-539 CNS was greater than 100 µM in each case.
`COc1ccc(CNc2cnc3cc(N)ccc3n2)cc1OC`: the TGI with HCT-116 colon, in the experiment with HT29 colon, in the experiment on NCI-H226 lung, in the experiment with NCI-H460 lung, in the experiment with OVCAR-8 ovarian and in the experiment on SF-268 CNS was greater than 100 µM each time. Besides, the TGI in the experiment with SF-295 CNS, in the experiment with SF-539 CNS and with UACC-257 melanoma was greater than 100 µM in each case.
As to `O=C(O)c1oc2ccc([N+](=O)[O-])c3c2c1CCC3`, the TGI with HCT-116 colon, in the experiment on HT29 colon, in the experiment with NCI-H226 lung, in the experiment with NCI-H460 lung, with OVCAR-8 ovarian and in the experiment with SF-268 CNS was greater than 100 µM each time. The TGI with SF-295 CNS, with SF-539 CNS and in the experiment on UACC-257 melanoma was greater than 100 µM each time.
Take `CC1=NN(C(=O)Cc2ccccc2)C(=O)/C1=C\c1cccc(O)c1`: the TGI in the experiment with HCT-116 colon, in the experiment on HT29 colon, in the experiment on NCI-H226 lung, in the experiment on NCI-H460 lung, in the experiment with OVCAR-8 ovarian and in the experiment with SF-268 CNS was greater than 100 µM each time. The TGI in the experiment with SF-295 CNS, in the experiment with SF-539 CNS and in the experiment on UACC-257 melanoma was greater than 100 µM throughout.
As to `COS(=O)CCOC(=O)c1ccccc1SSc1ccccc1C(=O)OCCS(=O)OC` (centres undefined), the TGI in the experiment with A498 renal is greater than 100 µM; in the experiment with HT29 colon, 28.8 µM; in the experiment with NCI-H460 lung, greater than 100 µM; in the experiment with OVCAR-8 ovarian, 81.2 µM; in the experiment with SF-268 CNS, greater than 100 µM; in the experiment with SF-295 CNS, greater than 100 µM. Also, the TGI in the experiment on SF-539 CNS was 65.6 µM; in the experiment with UACC-257 melanoma it was 38.8 µM.
Take `CC(C)c1cc2c(O)c(c1)Cc1cc(C(C)C)cc(c1O)Cc1cc(C(C)C)cc(c1O)Cc1cc(C(C)C)cc(c1O)Cc1cc(C(C)C)cc(c1O)Cc1cc(C(C)C)cc(c1O)C2`: the TGI with HCT-116 colon, with HT29 colon, in the experiment on NCI-H460 lung, in the experiment with OVCAR-8 ovarian, with SF-268 CNS and in the experiment on SF-295 CNS was greater than 100 µM throughout. The TGI in the experiment with SF-539 CNS and in the experiment on UACC-257 melanoma was greater than 100 µM each time.
As for `O=C(O)C1C2CC3CC2CC31` (centres undefined), the TGI in the experiment on A498 renal, with HCT-116 colon, with NCI-H460 lung, in the experiment with OVCAR-8 ovarian, with SF-268 CNS and with SF-295 CNS was greater than 100 µM each time. The TGI in the experiment with SF-539 CNS and with UACC-257 melanoma was greater than 100 µM throughout.
As for `Cc1nc(Nc2ccc([N+](=O)[O-])cc2)sc1C(=O)/C=C/c1ccc(N(C)C)cc1`, the TGI in the experiment on A498 renal, in the experiment with HT29 colon, with NCI-H460 lung, in the experiment on OVCAR-8 ovarian, in the experiment on SF-268 CNS and in the experiment with SF-295 CNS was greater than 100 µM each time. The TGI in the experiment with SF-539 CNS and with UACC-257 melanoma was greater than 100 µM throughout.
As to `C/C(=N\n1c(N)c(C#N)c(-c2ccc(Cl)cc2)c(C#N)c1=O)c1cccnc1`, the GI50 with HCT-116 colon, in the experiment on HT29 colon, in the experiment on NCI-H226 lung, in the experiment with NCI-H460 lung, in the experiment on OVCAR-8 ovarian and in the experiment on SF-268 CNS was greater than 100 µM each time. Further, the GI50 in the experiment on SF-295 CNS and in the experiment on UACC-257 melanoma was greater than 100 µM each time. For the same compound, the TGI in the experiment on HCT-116 colon, with HT29 colon, in the experiment with NCI-H226 lung, in the experiment with NCI-H460 lung, in the experiment on OVCAR-8 ovarian and with SF-268 CNS was greater than 100 µM throughout. In addition, the TGI in the experiment with SF-295 CNS and in the experiment with UACC-257 melanoma was greater than 100 µM each time.
